Key:
hMC5-R = hMC5-R (Homo sapiens, UniProt P33032); test: Competitive inhibition binding assay, 125I-NDP-α-MSH, hMC5-R membranes; settings: 1 μM test compound; 0.4 nM 125I-NDP-α-MSH; mean of triplicate; results less than 0% reported as 0%; read-out: Inhibition at 1 μM MC5-R
Procedure: (§1) Competitive inhibition assay. A competitive inhibition binding assay was conducted using membranes prepared from hMC1-R or B-16 mouse melanoma cells (containing MC1-R), hMC3-R, hMC4-R, and hMC5-R, and using 0.4 nM ^125I-NDP-α-MSH (New England Nuclear, Boston, Mass., USA) in 50 mM HEPES buffer containing 1 mM MgCl2, 2 mM CaCl2, and 5 mM KCl, at pH 7.2. The assay tube also contained a chosen concentration of the test compound of this invention, typically a 1 μM concentration, for determining its efficacy in inhibiting the binding of ^125I-NDP-α-MSH to its receptor. Non-specific binding was measured by complete inhibition of binding of ^125I-NDP-α-MSH in the assay with the presence of 1 μM α-MSH.
(§2) Incubation was for 90 minutes at room temperature, after which the assay mixture was filtered and the membranes washed three times with ice cold buffer. The filter was dried and counted in a gamma counter for remaining radioactivity bound to the membranes. 100% specific binding was defined as the difference in radioactivity (cpm) bound to cell membranes in the absence and presence of 1 μM α-MSH. The cpm obtained in the presence of test compounds are normalized with respect to 100% specific binding to determine the percent inhibition of ^125I-NDP-a-MSH binding. Each assay was conducted in triplicate and the actual mean values are described, with results less than 0% reported as 0%.

hMC1-R = hMC1-R (Homo sapiens, UniProt Q01726); test: Competitive inhibition binding assay, 125I-NDP-α-MSH, hMC1-R membranes; settings: 1 μM test compound; 0.4 nM 125I-NDP-α-MSH; mean of triplicate; results less than 0% reported as 0%; read-out: Inhibition at 1 μM MC1-R (human)
hMC1-R, sequence (Q01726 whole entry): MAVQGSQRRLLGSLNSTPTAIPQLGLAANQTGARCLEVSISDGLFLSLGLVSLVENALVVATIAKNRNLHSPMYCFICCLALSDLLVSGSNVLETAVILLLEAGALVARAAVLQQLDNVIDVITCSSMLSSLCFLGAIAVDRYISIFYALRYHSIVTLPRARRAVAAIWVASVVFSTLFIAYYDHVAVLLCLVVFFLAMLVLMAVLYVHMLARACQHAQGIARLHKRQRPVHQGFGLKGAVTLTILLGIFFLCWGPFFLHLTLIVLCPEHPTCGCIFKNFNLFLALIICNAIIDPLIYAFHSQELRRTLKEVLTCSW
Procedure: as §1, §2

hMC4-R = hMC4-R (Homo sapiens, UniProt P32245); test: Competitive inhibition binding assay, 125I-NDP-α-MSH, hMC4-R membranes; settings: 1 μM test compound; 0.4 nM 125I-NDP-α-MSH; mean of triplicate; results less than 0% reported as 0%; read-out: Inhibition at 1 μM MC4-R
hMC4-R, sequence (P32245 whole entry): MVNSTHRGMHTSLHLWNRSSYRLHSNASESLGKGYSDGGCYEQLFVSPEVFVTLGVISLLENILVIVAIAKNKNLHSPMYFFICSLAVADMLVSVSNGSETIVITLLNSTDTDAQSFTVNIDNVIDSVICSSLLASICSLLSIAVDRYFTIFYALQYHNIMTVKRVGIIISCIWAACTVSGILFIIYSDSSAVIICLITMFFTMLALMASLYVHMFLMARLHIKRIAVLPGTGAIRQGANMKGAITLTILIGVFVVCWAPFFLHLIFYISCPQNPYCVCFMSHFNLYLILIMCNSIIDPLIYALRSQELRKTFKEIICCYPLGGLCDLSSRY
Procedure: as §1, §2

hMC3-R = hMC3-R (Homo sapiens, UniProt P41968); test: Competitive inhibition binding assay, 125I-NDP-α-MSH, hMC3-R membranes; settings: 1 μM test compound; 0.4 nM 125I-NDP-α-MSH; mean of triplicate; results less than 0% reported as 0%; read-out: Inhibition at 1 μM MC3-R
hMC3-R, sequence (P41968 whole entry): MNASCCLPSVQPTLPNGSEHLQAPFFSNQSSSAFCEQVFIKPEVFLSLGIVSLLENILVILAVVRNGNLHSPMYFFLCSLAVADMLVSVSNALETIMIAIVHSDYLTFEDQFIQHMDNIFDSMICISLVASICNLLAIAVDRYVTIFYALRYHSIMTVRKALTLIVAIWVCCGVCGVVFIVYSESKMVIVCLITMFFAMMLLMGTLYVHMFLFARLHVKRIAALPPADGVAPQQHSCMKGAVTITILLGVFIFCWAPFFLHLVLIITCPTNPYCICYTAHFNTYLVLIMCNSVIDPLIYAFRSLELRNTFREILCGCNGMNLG
Procedure: as §1, §2

[1] = target: T1, B-16 mouse melanoma cells (containing MC1-R) (Mus musculus, UniProt Q01727); test: Competitive inhibition binding assay, 125I-NDP-α-MSH, B-16 mouse melanoma cell membranes; settings: 1 μM test compound; 0.4 nM 125I-NDP-α-MSH; mean of triplicate; results less than 0% reported as 0%; read-out: Inhibition at 1 μM MC1-R (murine)
T1 construct: B-16 mouse melanoma cells (containing MC1-R); endogenous in cells; host or cells: B-16 mouse melanoma cells
T1 sequence (Q01727 whole entry): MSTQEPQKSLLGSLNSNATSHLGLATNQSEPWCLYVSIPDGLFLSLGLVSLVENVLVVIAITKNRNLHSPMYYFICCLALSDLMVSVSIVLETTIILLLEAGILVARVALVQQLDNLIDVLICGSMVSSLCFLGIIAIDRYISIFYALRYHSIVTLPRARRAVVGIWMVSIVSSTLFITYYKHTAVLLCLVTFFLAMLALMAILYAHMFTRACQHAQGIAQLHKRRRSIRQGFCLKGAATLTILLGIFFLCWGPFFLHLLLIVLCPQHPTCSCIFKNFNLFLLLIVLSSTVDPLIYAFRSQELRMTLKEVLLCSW
Procedure: as §1, §2

hMC5-R, sequence (P33032 whole entry): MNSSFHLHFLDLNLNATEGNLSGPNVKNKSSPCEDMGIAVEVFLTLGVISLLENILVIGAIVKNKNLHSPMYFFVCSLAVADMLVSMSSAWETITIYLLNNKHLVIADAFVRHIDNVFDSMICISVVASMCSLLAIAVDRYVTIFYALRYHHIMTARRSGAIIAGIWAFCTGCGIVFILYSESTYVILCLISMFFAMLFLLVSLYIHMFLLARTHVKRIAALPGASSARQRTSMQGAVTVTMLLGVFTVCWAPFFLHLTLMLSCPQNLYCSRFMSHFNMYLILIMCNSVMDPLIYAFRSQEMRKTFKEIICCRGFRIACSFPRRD

Structure (SMILES) | inhibition at 1 µM (hMC5-R) [%] | inhibition at 1 µM (hMC1-R) [%] | inhibition at 1 µM (hMC4-R) [%] | inhibition at 1 µM (hMC3-R) [%] | inhibition at 1 µM [1] [%]
O=C(CCc1ccc(Cl)cc1Cl)N1C[C@H](Cc2ccccc2)NC[C@H]1Cc1ccc2ccccc2c1 [Example 2, 1-((2R,5S)-5-Benzyl-2-naphthalen-2-ylmethyl-piperazin-1-yl)-3-(2,4-dichloro-phenyl)-propan-1-one] | 6 | 9 | 18 | 9 | –
N[C@H](Cc1ccc(Cl)cc1Cl)C(=O)N1C[C@H](Cc2ccccc2)NC[C@H]1Cc1ccc2ccccc2c1 [Example 5, (R)-2-Amino-1-((2R,5S)-5-benzyl-2-naphthalen-2-ylmethyl-piperazin-1-yl)-3-(2,4-dichloro-phenyl)-propan-1-one] | 22 | 0 | 34 | 12 | –
N[C@H](Cc1ccccc1)C(=O)N1C[C@H](Cc2ccccc2)NC[C@H]1Cc1ccccc1 [Example 6, (R)-2-Amino-1-((2R,5S)-2,5-dibenzyl-piperazin-1-yl)-3-phenyl-propan-1-one] | 13 | 0 | 4 | 12 | 0

Now from value to compound:

inhibition at 1 µM (hMC5-R) [%] | inhibition at 1 µM (hMC1-R) [%] | inhibition at 1 µM (hMC4-R) [%] | inhibition at 1 µM (hMC3-R) [%] | inhibition at 1 µM [1] [%] | Structure (SMILES)
8 | 0 | 33 | 14 | – | N[C@H](Cc1ccccc1)C(=O)N1C[C@H](Cc2ccccc2)NC[C@H]1Cc1ccc2ccccc2c1 [Example 1, (R)-2-Amino-1-((2R,5S)-5-benzyl-2-naphthalen-2-ylmethyl-piperazin-1-yl)-3 phenyl-propan-1-one]
21 | 10 | 39 | 19 | – | N[C@H](Cc1ccc2ccccc2c1)C(=O)N1C[C@H](Cc2ccccc2)NC[C@H]1Cc1ccc2ccccc2c1 [Example 3, (R)-2-Amino-1-((2R,5S)-5-benzyl-2-naphthalen-2-ylmethyl-piperazin-1-yl)-3-naphthalen-2-yl-propan-1-one]
11 | 6 | 25 | 13 | – | N[C@@H](Cc1ccccc1)C(=O)N1C[C@H](Cc2ccccc2)NC[C@H]1Cc1ccc2ccccc2c1 [Example 4, (S)-2-Amino-1-((2R,5S)-5-benzyl-2-naphthalen-2-ylmethyl-piperazin-1-yl)-3-phenyl-propan-1-one]
13 | 17 | 16 | 9 | 0 | N[C@H](Cc1ccccc1)C(=O)N1C[C@@H](Cc2ccc3ccccc3c2)NC[C@@H]1Cc1ccccc1 [Example 7, (R)-2-Amino-1-((2S,5R)-2-benzyl-5-naphthalen-2-ylmethyl-piperazin-1-yl)-3-phenyl-propan-1-oneylamino-3-phenyl-propan-1-one]

Reference: patent US7709484B1, “Substituted melanocortin receptor-specific piperazine compounds” (Palatin Technologies, Inc., priority 2004, dated 2010)
